{"source": "patent US8492350B2", "about": "“Therapeutic agent for pain disease” (Nippon Zoki Pharmaceutical Co., Ltd., priority 2007, dated 2013)", "key": {"[1]": {"test_system": "Chung model rats which are models of neuropathic pain", "experiment": "Test for analgesic effect (allodynia, von Frey filament, up-down method) in Chung model rats", "format": "in vivo, rats of Wistar strain", "conditions": "for 50% Reaction Threshold Values, Before Administration: baseline", "experimental": "Test for analgesic effect was conducted using Chung model rats which are models of neuropathic pain. Male rats of Wistar strain of 9 weeks age were used as experimental animals and model rats were prepared according to a method of Kim and Chung (Pain, vol. 50, pages 355 to 363, 1992). Thus, when they were in 10 weeks age, rat L5 spinal nerve was exposed and the periphery side of L5 dorsal root ganglion was strongly ligated with 5-0 silk yarn under anesthetizing with pentobarbital (40 mg/kg, intraperitoneal administration) to conduct a nerve damage. The animals were placed in a transparent acrylic cage where the bottom was wire net, 50% reaction threshold values were calculated by an up-down method using a von Frey filament (manufactured by North Coast Medical Inc.) according to a method of Chaplan, et al. (J. Neurosci. Method, vol. 53, pages 55 to 63, 1994) and the effect of the test substance to allodynia was measured. […] In those experimental animals, each group comprised seven animals using the 50% reaction threshold values after the nerve damage as an index and the group constitution was done in such a manner that mean values of a nerve damage control group and of a test substance-administered group were made nearly uniform.\nN-acetylneuraminic acid as a test substance was intraperitoneally administered in a single dose (120 mg/kg). A 0.5% CMC-Na (w/v) solution/physiological saline was similarly administered to the nerve damage control group (control group). After 30 minutes from the administration of a test substance, pain tests were conducted and the calculated 50% reaction threshold values were expressed in terms of mean value±standard deviation for each group.\nFurther, in the same manner as the above test, N-acetylneuraminic acid as a test substance was orally administered in a single dose (300 mg/kg). Injection solvent was administered to a nerve damage control group (control group) in the same manner. After 60 minutes from the administration of a test substance, pain tests were conducted and the 50% reaction threshold values were calculated. Numbers of the animals were eight for each of the nerve damage control group and the test substance-administered group."}, "[2]": {"conditions": "disclosed in Patent Document 1 / Example 8 of Japanese Examined Patent Publication No. 63/028,411; cited from earlier work"}}}
{"compound": "CC(=O)N[C@H]1[C@H]([C@H](O)[C@H](O)CO)OC(O)(C(=O)O)C[C@@H]1O", "note": "(stereo partly shown) [N-Acetylneuraminic Acid, N-acetylneuraminic acid]", "values": [{"measurement": "50% reaction threshold value as compared with the nerve damage control group (anti-allodynia action)", "setting": "[1]; both single intraperitoneal injection and single oral administration", "value": "significant rise"}, {"measurement": "50% Reaction Threshold Values, Before Administration", "setting": "[1]; group later given a single intraperitoneal dose of 120 mg/kg, mean ± standard deviation", "value": "2.63 ± 0.21", "unit": "g"}, {"measurement": "50% Reaction Threshold Values, Before Administration", "setting": "[1]; group later given a single oral dose of 300 mg/kg", "value": "2.75 ± 0.15", "unit": "g"}, {"measurement": "50% Reaction Threshold Values, After 30 minutes from Administration", "setting": "[1]; single intraperitoneal dose 120 mg/kg, 30 minutes after administration, mean ± standard deviation, *P < 0.05 vs nerve damage control", "value": "6.74 ± 1.64* g"}, {"measurement": "50% Reaction Threshold Values, After 60 minutes from Administration", "setting": "[1]; single oral dose 300 mg/kg, 60 minutes after administration, *P < 0.05 vs nerve damage control", "value": "4.81 ± 0.35* g"}, {"measurement": "Acute toxicity", "setting": "[2]", "value": "very low and safe"}]}
{"compound": "CC(=O)N[C@H]1[C@H]([C@H](O)[C@H](O)CO)OC(O)(C(=O)[O-])C[C@@H]1O.[Na+]", "note": "(stereo partly shown) [sodium N-acetylneuraminate]", "values": [{"measurement": "Acute toxicity", "setting": "[2]", "value": "very lowly toxic"}]}
